This note sets out measurements from ChEMBL document CHEMBL1201862, “PubChem BioAssay data set” (2004).

Holding throughout (assay): inhibition of tumour cell growth, NCI panel, 48 h
The subject of test [1] is IGROV-1.
Test [2] has as its system MDA-N.
Test [3] has as its system SF-295.
For test [4], the system named is UACC-62.
For test [5], the system named is MDA-MB-435.
For test [6], the system named is NCI-H522.
For test [7], the system named is HCT-116.
The test system of test [8] is NCI-H226.
In test [9] the test system is 786-0.
Test [10] has as its system CAKI-1.
Test [11] has as its system SK-MEL-28.
The test system of test [12] is K562.
Test [13] deals with SK-MEL-2.
The subject of test [14] is SNB-75.
Test [15] concerns SF-268.
In test [16] the test system is RPMI-8226.
In test [17] the test system is SNB-19.
In test [18] the test system is NCI-H23.
Test [19] concerns HOP-62.
The subject of test [20] is OVCAR-3.

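Five concentrations, 48 hours, 96-well plates. GI50: concentration for 50% inhibition of growth.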 Active and inactive are the calls of the source. Cut-off read from the data, not from the text of the source: active = GI50 up to about 1.1 µM and inactive = higher. A value given as a limit tells only on which side of the number the result lay.

Regarding `CC#CC#C/C(=C/C=CC(=O)OC)SC`, the GI50 in test [1], in test [2], in [3], in test [4], in [5] and in test [6] was > 100 µM (inactive) in each case. The GI50 in test [7], in [8], in test [9], in [10], in [11] and in [12] was > 100 µM (inactive) throughout. For the same compound, the GI50 in [13] was > 100 µM (inactive); in test [14], 39.4 µM (inactive); in test [15], > 100 µM (inactive).

With `C/C(=N\Nc1nc2ccccc2n1C)c1cc2ccccc2cn1`, the GI50 in test [1] is < 0.0128 µM (active); in test [2], 0.176 µM (active); in [16], < 0.01 µM (active); in [3], 0.144 µM (active); in test [4], 0.0403 µM (active); in test [5] it was 0.295 µM (active). The GI50 is < 0.01 µM (active) in test [6]; < 0.01 µM (active) in [7]; 0.0448 µM (active) in [8]; < 0.0173 µM (active) in test [9]; < 0.01 µM (active) in test [10]; 0.352 µM (active) in test [17]. Moreover, the GI50 in test [11] was 0.213 µM (active); in [12], < 0.0135 µM (active); in test [13], 0.805 µM (active); in [18] it was < 0.0172 µM (active); in test [14], 1.14 µM (inactive); in test [19], 0.153 µM (active). The GI50 in [15] was < 0.0294 µM (active).

On to `COc1cc2c(cc1OC)[C@H](C)N1CCc3cc(OC)c(OC)cc3[C@@H]1C2`, for which the GI50 in test [1], in test [2], in [16], in test [3], in test [4] and in [5] was > 100 µM (inactive) throughout. For the same compound, the GI50 in test [6], in test [7], in test [8], in test [20], in [9] and in test [10] was > 100 µM (inactive) each time. Further, the GI50 in test [17], in test [11], in test [12], in [13], in [18] and in test [14] was > 100 µM (inactive) throughout. The GI50 in test [15] is > 100 µM (inactive).

For `COc1ccc(/C=N/NC(=O)O)cc1`, the GI50 in [1], in [2], in test [16], in test [3], in [4] and in test [5] was > 100 µM (inactive) each time. The GI50 in test [6], in test [7], in test [20], in test [9], in test [10] and in test [17] was > 100 µM (inactive) throughout. The GI50 in test [11], in [12], in [13], in test [18], in [14] and in test [19] was > 100 µM (inactive) in each case.

`O=C(O)c1ccccc1/C=N\N=C1NCCCCN1`: the GI50 in test [1], in test [2], in [16], in [3], in [4] and in [5] was > 100 µM (inactive) in each case. For the same compound, the GI50 in [6], in test [7], in [8], in test [20], in test [9] and in test [10] was > 100 µM (inactive) in each case. The GI50 in [17], in test [12], in test [13], in [18], in test [14] and in test [19] was > 100 µM (inactive) each time. Moreover, the GI50 in test [15] was > 100 µM (inactive).

Consider `Cc1ccc(OCC2=NN3C(=O)/C(=C\c4ccc([N+](=O)[O-])o4)SC3N2)cc1` (stereo not drawn), for which the GI50 in [1] was 10.5 µM (inactive); in test [2], 4.3 µM (inactive); in test [16], 2.16 µM (inactive); in test [3] it was 14.8 µM (inactive); in test [5], 5.47 µM (inactive); in test [6] it was 1.82 µM (inactive). Also, the GI50 in [7] is 3.63 µM (inactive); in [8], 15.4 µM (inactive); in [20], 1.95 µM (inactive); in [9], 10.2 µM (inactive); in [10], 14.6 µM (inactive); in test [17] it was 17.8 µM (inactive). The GI50 is 12.7 µM (inactive) in [11]; 0.711 µM (active) in test [12]; 15.7 µM (inactive) in test [13]; 11.9 µM (inactive) in test [18]; 15.9 µM (inactive) in test [14]; 16.6 µM (inactive) in [19]. In addition, the GI50 in test [15] was 4.07 µM (inactive).

On to `Cc1ccc(CC(Cc2ccccc2C)C(=O)O)c(C(=O)O)c1` (stereo not drawn), for which the GI50 in test [1], in [2], in test [16], in test [3], in test [5] and in [6] was > 100 µM (inactive) throughout. Besides, the GI50 in [7], in test [8], in test [20], in test [9], in test [10] and in [17] was > 100 µM (inactive) throughout. In addition, the GI50 in test [11], in [12], in test [13], in test [18], in test [14] and in test [19] was > 100 µM (inactive) each time. In test [15], the GI50 was > 100 µM (inactive).

Turning to `C[N+]1([O-])[C@H]2CC(OC(=O)[C@H](CO)c3ccccc3)C[C@H]1[C@H]1O[C@H]12` (stereo partly drawn), the GI50 in test [1], in test [2], in test [16], in test [3], in test [4] and in test [5] was > 100 µM (inactive) throughout. The GI50 in [6], in test [7], in [8], in test [20], in test [9] and in test [10] was > 100 µM (inactive) in each case. Moreover, the GI50 in test [17], in [11], in [12], in test [13], in test [18] and in [14] was > 100 µM (inactive) in each case. In addition, the GI50 in test [19] was > 100 µM (inactive).

Regarding `C/C1=C\[C@@H](O)C(=O)/C=C/C=C\c2csc(n2)[C@@H](C)NC(=O)C[C@@]2(CC1)[S+]([O-])SC(=O)[C@]2(C)O` (stereo partly drawn) [LEINAMYCIN], the GI50 is 0.2 µM (active) in test [1]; 0.0101 µM (active) in [2]; 0.00445 µM (active) in [16]; 0.0446 µM (active) in [3]; 0.0124 µM (active) in test [4]; 0.0187 µM (active) in test [5]. Besides, the GI50 in test [6] is 0.00188 µM (active); in test [8], 0.206 µM (active); in [20] it was 0.0112 µM (active); in test [9], 0.00391 µM (active); in [10] it was 0.00133 µM (active); in test [17], 0.284 µM (active). For the same compound, the GI50 is 0.0214 µM (active) in test [11]; 0.00456 µM (active) in test [12]; 0.00601 µM (active) in test [13]; 0.00594 µM (active) in [18]; 0.0252 µM (active) in test [14]; 0.13 µM (active) in test [19]. In addition, in test [15], the GI50 was 0.0272 µM (active).

With `O=P1(N(CCCl)CCCl)Oc2c(Cl)cc(Cl)c(Cl)c2Cc2c(Cl)c(Cl)cc(Cl)c2O1`, the GI50 in [2] is 67.8 µM (inactive); in [16], 64.3 µM (inactive); in test [3], 22.7 µM (inactive); in test [4], 48.3 µM (inactive); in test [5] it was 60.5 µM (inactive); in [6], 31 µM (inactive). Further, the GI50 in test [7] was 27.9 µM (inactive); in [8] it was 26.9 µM (inactive); in test [20], 45.2 µM (inactive); in test [9], 90.4 µM (inactive); in test [10] it was 64.9 µM (inactive); in test [11] it was > 100 µM (inactive). For the same compound, the GI50 in test [12] is 74 µM (inactive); in [13], 22 µM (inactive); in test [18], 21.4 µM (inactive); in test [14], > 100 µM (inactive); in [19], 64 µM (inactive); in test [15], > 100 µM (inactive).

Regarding `Cc1c(-c2ccccc2)c(C#N)c2nnn(-c3cccc(Cl)c3)c(=O)n12`, the GI50 is 54.8 µM (inactive) in test [1]; > 100 µM (inactive) in test [2]; 42.5 µM (inactive) in [16]; 39.6 µM (inactive) in test [3]; > 100 µM (inactive) in test [4]; > 100 µM (inactive) in [5]. Also, the GI50 in test [6] is 47.8 µM (inactive); in [7] it was 70 µM (inactive); in test [8] it was 48.5 µM (inactive); in test [20], 43 µM (inactive); in test [9] it was 28.6 µM (inactive); in [10] it was > 100 µM (inactive). Besides, the GI50 in test [11] is > 100 µM (inactive); in test [12], 50.5 µM (inactive); in test [13], 27.7 µM (inactive); in test [18], > 100 µM (inactive); in test [14], 31.2 µM (inactive); in test [19] it was 37.2 µM (inactive). Also, the GI50 in test [15] is 80.5 µM (inactive).
